Reference: patent US20210137829A1, “TOPICAL DELIVERY SYSTEMS FOR ACTIVE COMPOUNDS” (Yissum Research Development Company of the Hebrew …, priority 2017, published 2021)

What was measured:
[1] = Self-diffusion NMR (SD-NMR); type: physicochemical
Experimental: In order to characterize the structure of the oily domains, self-diffusion NMR (SD-NMR) analysis was carried out. SD-NMR analysis provides an indication on the location of each component within the structure, by calculating the diffusion coefficient of each component in the system.
SD-NMR measurements were performed with a Bruker AVII 500 spectrometer equipped with GREAT 1/10 gradients, a 5 mm BBO and a 5 mm BBI probe, both with a z-gradient coil and with a maximum gradient strength of 0.509 and 0.544 T m^−1, respectively. Diffusion was measured using an asymmetric bipolar longitudinal eddy-current delay (bpLED) experiment, or and asymmetric bipolar stimulated echo (known as one-shot) experiment with convection compensation and an asymmetry factor of 20%, ramping the strongest gradient from 2% to 95% of maximum strength in 32 steps. The spectrum was processed with the Bruker TOPSPIN software. NMR spectra were recorded at 25±0.2° C. The components were identified by their chemical shift in 1H NMR.

[2] = Water dilution of the oily phase; type: physicochemical; settings: oily phase loaded with active; un-loaded phase separates above 50 wt % water
Experimental: 2 wt % DCF-Na loaded oily composition which is substantially devoid of water (i.e. a concentrate) was prepared according to the process described above. The un-diluted oily composition was constituted by self-assembled oil-solvated clusters or short domains of surfactants, which differ from the classical reverse micelles. These concentrates are dilutable by any suitable diluent, for example by purified water, to form a diluted delivery system.
It was noted that the oily carrier, i.e. the oily composition without DCF-Na, could not be fully diluted.

Diffusion coefficient Dx of DCF-Na ([1]; 2 wt % DCF-Na formulation, FIGS. 11A-11B): 0.1×10^−11 m^2/sec | Dilutability of the oily phase with water [2]: fully dilutable up to 90 wt %
Compound: O=C([O-])Cc1ccccc1Nc1c(Cl)cccc1Cl.[Na+] [DCF-Na, diclofenac sodium]
Diffusion coefficient of DCF-Na, gelled vs non-viscosified ([1]; 80 wt % water, 0.75 wt % gellant): lower in the gelled formulation than in the non-viscosified system
